Values quoted from earlier work in patent US20090246264A1, “Transdermal Tobacco Alkaloid Patch” (Fertin Pharma, priority 2005, published 2009).

Details: pure nicotine placed on the skin of an ordinary human being

For CN1CCCC1c1cccnc1 (stereo not shown) [nicotine], the lethal dose is given as 50 mg.
